# From patent US10597388B2, “Pyridazinone herbicides” (FMC CORPORATION, priority 2014, dated 2020)
# Assays:
# Format in all cases: in vivo
# [1] = test system: lambsquarters (Chenopodium album); experiment: Test C greenhouse herbicide test, pre- and postemergence
# How it was run: (§1)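 Visual ratings on a 0 to 100 scale (0 = no effect, 100 = complete control) versus untreated controls, scored 13–15 d after treatment. Soil-applied preemergence to seeded loam/sand; foliar postemergence to 1- to 4-leaf plants (2–18 cm) in peat-vermiculite mix; compounds formulated in solvent plus surfactant.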
# [2] = test system: foxtail, giant (giant foxtail, Setaria faberii); experiment: as above
# How it was run: as §1
# [3] = test system: crabgrass, large (large crabgrass, Digitaria sanguinalis); experiment: as above
# How it was run: as §1
# [4] = test system: oilseed rape (Brassica napus); experiment: as above
# How it was run: as §1
# [5] = test system: nutsedge, yellow (yellow nutsedge, Cyperus esculentus); experiment: as above
# How it was run: as §1
# [6] = test system: johnsongrass (Sorghum halepense); experiment: as above
# How it was run: as §1
# [7] = test system: morningglory (Ipomoea coccinea); experiment: as above
# How it was run: as §1
# [8] = test system: pigweed (Amaranthus retroflexus); experiment: as above
# How it was run: as §1
# [9] = test system: wheat (winter wheat, Triticum aestivum); experiment: as above
# How it was run: as §1
# [10] = test system: velvetleaf (Abutilon theophrasti); experiment: as above
# How it was run: as §1
# [11] = test system: barnyardgrass (Echinochloa crus-galli); experiment: as above
# How it was run: as §1
# corn (Zea mays) = experiment: as above
# How it was run: as §1
# [12] = test system: blackgrass (Alopecurus myosuroides); experiment: as above
# How it was run: as §1
# [13] = test system: waterhemp (common waterhemp, Amaranthus rudis); experiment: as above
# How it was run: as §1
# kochia (Kochia scoparia) = experiment: Test C greenhouse herbicide test, postemergence
# How it was run: (§2)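 Plants grown in potting mix of peat moss, vermiculite, wetting agent and starter nutrients were sprayed postemergence at 2 to 18 cm height (1- to 4-leaf stage). After 13 to 15 d in the greenhouse, injury was visually rated against untreated controls on a 0–100 scale (0 no effect, 100 complete control).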
# [14] = test system: oat, wild (wild oat, Avena fatua); experiment: Test C greenhouse herbicide test, postemergence
# How it was run: as §2
# [15] = Postemergence, 31 g ai/ha, scale 0 to 100 (0 no effect, 100 complete control)
# [16] = Postemergence, 62 g ai/ha, 0 to 100 scale (0 no effect, 100 complete control)
# [17] = Postemergence, 250 g ai/ha, scale 0 to 100, 0 no effect, 100 complete control, 13 to 15 d
# [18] = Preemergence, 31 g ai/ha, scale 0 to 100, 0 is no effect, 100 is complete control
# [19] = Preemergence, 62 g ai/ha, scale 0 to 100, 0 is no effect, 100 is complete control
# [20] = Preemergence, 125 g ai/ha, scale 0 to 100, 0 is no effect, 100 is complete control
# [21] = Preemergence, 250 g ai/ha, scale 0 to 100 (0 no effect, 100 complete control)
# [22] = postemergence, 125 g ai/ha, scale 0 to 100, 0 no effect, 100 complete control
smiles,measurement,setting,value
COC(=O)Oc1c(Br)nn(C)c(=O)c1-c1c(C)ccc2ccccc12 [Compound 137],"Plant response rating, Lambsquarters",[1]; [15],90
same,Lambsquarters plant response rating,[1]; [16],90
same,"Plant response rating, Lambsquarters",[1]; [17],100
same,"Plant response rating, Lambsquarters",[1]; [18],90
same,"Plant response rating, Lambsquarters",[1]; [19],100
same,"Plant response rating, Lambsquarters",[1]; [20],100
same,Lambsquarters plant response rating,[1]; [21],95
same,Lambsquarters plant response rating,[1]; [22],98
same,"Plant response rating, Foxtail, Giant",[2]; [15],45
same,"Foxtail, Giant plant response rating",[2]; [16],60
same,"Plant response rating, Foxtail, Giant",[2]; [17],95
same,"Plant response rating, Foxtail, Giant",[2]; [18],65
same,"Plant response rating, Foxtail, Giant",[2]; [19],85
same,"Plant response rating, Foxtail, Giant",[2]; [20],95
same,"Foxtail, Giant plant response rating",[2]; [21],100
same,"Foxtail, Giant plant response rating",[2]; [22],80
same,"Plant response rating, Crabgrass, Large",[3]; [15],30
same,"Crabgrass, Large plant response rating",[3]; [16],30
same,"Plant response rating, Crabgrass, Large",[3]; [17],35
same,"Plant response rating, Crabgrass, Large",[3]; [18],20
same,"Plant response rating, Crabgrass, Large",[3]; [19],20
same,"Plant response rating, Crabgrass, Large",[3]; [20],70
same,"Crabgrass, Large plant response rating",[3]; [21],80
same,"Crabgrass, Large plant response rating",[3]; [22],35
same,"Plant response rating, Oilseed Rape",[4]; [15],95
same,Oilseed Rape plant response rating,[4]; [16],98
same,"Plant response rating, Oilseed Rape",[4]; [17],98
same,"Plant response rating, Oilseed Rape",[4]; [18],0
same,"Plant response rating, Oilseed Rape",[4]; [19],90
same,"Plant response rating, Oilseed Rape",[4]; [20],50
same,Oilseed Rape plant response rating,[4]; [21],90
same,Oilseed Rape plant response rating,[4]; [22],98
same,"Plant response rating, Nutsedge, Yellow",[5]; [15],65
same,"Nutsedge, Yellow plant response rating",[5]; [16],85
same,"Plant response rating, Nutsedge, Yellow",[5]; [17],90
same,"Plant response rating, Nutsedge, Yellow",[5]; [18],55
same,"Plant response rating, Nutsedge, Yellow",[5]; [19],85
same,"Plant response rating, Nutsedge, Yellow",[5]; [20],90
same,"Nutsedge, Yellow plant response rating",[5]; [21],95
same,"Nutsedge, Yellow plant response rating",[5]; [22],85
same,"Plant response rating, Johnsongrass",[6]; [15],10
same,Johnsongrass plant response rating,[6]; [16],10
same,"Plant response rating, Johnsongrass",[6]; [17],15
same,"Plant response rating, Johnsongrass",[6]; [18],0
same,"Plant response rating, Johnsongrass",[6]; [19],5
same,"Plant response rating, Johnsongrass",[6]; [20],20
same,Johnsongrass plant response rating,[6]; [21],20
same,Johnsongrass plant response rating,[6]; [22],15
same,"Plant response rating, Morningglory",[7]; [15],100
same,Morningglory plant response rating,[7]; [16],98
same,"Plant response rating, Morningglory",[7]; [17],100
same,"Plant response rating, Morningglory",[7]; [18],70
same,"Plant response rating, Morningglory",[7]; [19],85
same,"Plant response rating, Morningglory",[7]; [20],90
same,Morningglory plant response rating,[7]; [21],98
same,Morningglory plant response rating,[7]; [22],100
same,"Plant response rating, Pigweed",[8]; [15],90
same,Pigweed plant response rating,[8]; [16],98
same,"Plant response rating, Pigweed",[8]; [17],100
same,"Plant response rating, Pigweed",[8]; [18],100
same,"Plant response rating, Pigweed",[8]; [19],100
same,"Plant response rating, Pigweed",[8]; [20],100
same,Pigweed plant response rating,[8]; [21],100
same,Pigweed plant response rating,[8]; [22],98
same,"Plant response rating, Wheat",[9]; [15],75
same,Wheat plant response rating,[9]; [16],90
same,"Plant response rating, Wheat",[9]; [17],95
same,"Plant response rating, Wheat",[9]; [18],15
same,"Plant response rating, Wheat",[9]; [19],80
same,"Plant response rating, Wheat",[9]; [20],90
same,Wheat plant response rating,[9]; [21],90
same,Wheat plant response rating,[9]; [22],90
same,"Plant response rating, Velvetleaf",[10]; [15],85
same,Velvetleaf plant response rating,[10]; [16],90
same,"Plant response rating, Velvetleaf",[10]; [17],95
same,"Plant response rating, Velvetleaf",[10]; [18],80
same,"Plant response rating, Velvetleaf",[10]; [19],100
same,"Plant response rating, Velvetleaf",[10]; [20],100
same,Velvetleaf plant response rating,[10]; [21],100
same,Velvetleaf plant response rating,[10]; [22],90
same,"Plant response rating, Barnyardgrass",[11]; [15],25
same,Barnyardgrass plant response rating,[11]; [16],40
same,"Plant response rating, Barnyardgrass","[11]; Postemergence, 125 g ai/ha, scale 0 to 100, 0 is no effect, 100 is complete control",50
same,"Plant response rating, Barnyardgrass",[11]; [17],65
same,"Plant response rating, Barnyardgrass",[11]; [18],35
same,"Plant response rating, Barnyardgrass",[11]; [19],85
same,"Plant response rating, Barnyardgrass",[11]; [20],90
same,Barnyardgrass plant response rating,[11]; [21],100
same,"Plant response rating, Corn",corn (Zea mays); [15],5
same,Corn plant response rating,corn (Zea mays); [16],15
same,"Plant response rating, Corn",corn (Zea mays); [17],20
same,"Plant response rating, Corn",corn (Zea mays); [18],0
same,"Plant response rating, Corn",corn (Zea mays); [19],10
same,"Plant response rating, Corn",corn (Zea mays); [20],10
same,Corn plant response rating,corn (Zea mays); [21],55
same,Corn plant response rating,corn (Zea mays); [22],10
same,"Plant response rating, Blackgrass",[12]; [15],0
same,Blackgrass plant response rating,[12]; [16],0
same,"Plant response rating, Blackgrass",[12]; [17],0
same,"Plant response rating, Blackgrass",[12]; [18],30
same,"Plant response rating, Blackgrass",[12]; [19],40
same,"Plant response rating, Blackgrass",[12]; [20],30
same,Blackgrass plant response rating,[12]; [21],90
same,Blackgrass plant response rating,[12]; [22],0
same,"Plant response rating, Waterhemp",[13]; [15],85
same,Waterhemp plant response rating,[13]; [16],65
same,"Plant response rating, Waterhemp",[13]; [17],90
same,"Plant response rating, Waterhemp",[13]; [18],85
same,"Plant response rating, Waterhemp",[13]; [19],98
same,"Plant response rating, Waterhemp",[13]; [20],95
same,Waterhemp plant response rating,[13]; [21],98
same,Waterhemp plant response rating,[13]; [22],85
same,"Plant response rating, Kochia",kochia (Kochia scoparia); [15],100
same,Kochia plant response rating,kochia (Kochia scoparia); [16],100
same,"Plant response rating, Kochia",kochia (Kochia scoparia); [17],100
same,Kochia plant response rating,kochia (Kochia scoparia); [22],100
same,"Plant response rating, Oat, Wild",[14]; [15],70
same,"Oat, Wild plant response rating",[14]; [16],70
same,"Plant response rating, Oat, Wild",[14]; [17],90
same,"Oat, Wild plant response rating",[14]; [22],90
